Test results as given in patent US10774071B2, “PD-1/PD-L1 inhibitors” (Gilead Sciences, Inc., priority 2018, dated 2020).
Where two headings read alike, the source gives them in different places.

Experiments:
[1] = target: FFA1 (h) (GPR40) (Homo sapiens (Human), UniProt O14842); assay: GPR40 functional assay, antagonist effect (intracellular Ca2+, fluorimetry); format: cell-based; details: HEK293, human recombinant GPR40 in HEK-293 cells, stimulus linoleic acid 20000 nM
Procedure: (§1) Select compounds were tested in a functional GRP40 assay as described in Briscoe, C. P. et al. (Brit. J. Pharmacol., (2006), 148: 619-628) to determine agonist/antagonist activity. […] Using a HEK-293 cell line transiently transduced to express GPR40, the agonist/antagonist activity of select compounds has been assessed.

[2] = target: PD-1/PD-L1 (Homo sapiens (Human), UniProt Q9NZQ7); assay: PD-1/PD-L1 biochemical protein-protein interaction assay (ALPHA); format: binding; details: 0.3 nM His tagged PD-L1, 2.5 nM biotinylated Fc-PD-1, Table 3B, read-out: IC50 PD-L1-PD1
Chain of PD-1/PD-L1 (Q9NZQ7 19-238): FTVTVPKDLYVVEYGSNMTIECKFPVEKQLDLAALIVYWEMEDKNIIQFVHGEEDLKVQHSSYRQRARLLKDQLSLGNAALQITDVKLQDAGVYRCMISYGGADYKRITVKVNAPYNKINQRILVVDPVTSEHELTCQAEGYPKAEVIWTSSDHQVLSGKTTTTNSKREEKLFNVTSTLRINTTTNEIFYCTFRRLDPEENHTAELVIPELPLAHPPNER

[3] = target: FFA1 (h) (GRP40) (Homo sapiens (Human), UniProt O14842); assay: GPR40 functional assay, agonist effect (intracellular Ca2+, fluorimetry); format: cell-based; details: HEK293, human recombinant GPR40 in HEK-293 cells, control 100 μM linoleic acid
Chain of FFA1 (h) (GRP40) (O14842 whole entry): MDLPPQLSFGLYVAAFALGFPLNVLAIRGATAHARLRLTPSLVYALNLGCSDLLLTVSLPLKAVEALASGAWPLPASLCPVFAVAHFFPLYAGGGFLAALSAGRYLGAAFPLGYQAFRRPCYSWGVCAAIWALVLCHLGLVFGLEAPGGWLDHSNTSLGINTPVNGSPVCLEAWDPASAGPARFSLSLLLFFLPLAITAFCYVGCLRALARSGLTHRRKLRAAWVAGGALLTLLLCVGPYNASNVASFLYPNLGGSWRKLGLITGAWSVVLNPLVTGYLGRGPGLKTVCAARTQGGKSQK
Procedure: as §1

[4] = target: PD-L1 (Homo sapiens (Human), UniProt Q9NZQ7); assay: PD-L1/PD-L1 dimerization biochemical protein-protein interaction assay (ALPHA); format: binding; details: 0.5 nM His tagged PD-L1 and 0.5 nM FLAG tagged PD-L1, Table 4B, read-out: AC50 PDL1 Dimer 1 nM
Chain of PD-L1 (Q9NZQ7 19-238): as the sequence (Q9NZQ7 19-238) above
Chain of PD-L1 (Q9NZQ7 19-238): as above

Chain of FFA1 (h) (GPR40) (O14842 whole entry): as the sequence (O14842 whole entry) above

inhibition at 10 µM ([1]; 1st replicate, read-out: % inhibition of control agonist response, 1st): 8% | inhibition at 10 µM ([1]; 2nd replicate, read-out: % inhibition of control agonist response, 2nd): 15% | inhibition at 10 µM ([1]; mean, read-out: % inhibition of control agonist response, Mean): 11.5% | IC50 [2]: 0.064 nM | activity at 10 µM ([3]; 1st replicate, read-out: % of control agonist response, 1st): -2% | activity at 10 µM ([3]; 2nd replicate, read-out: % of control agonist response, 2nd): -0.5% | activity at 10 µM ([3]; mean, read-out: % of control agonist response, Mean): -1.2% | AC50 [4]: 32.4 nM
Structure (SMILES): COc1nc(-c2cccc(-c3cccc4c3CC[C@@H]4Oc3nc(OC)c(CN4CC5(C(=O)O)CCC4CC5)nc3C)c2Cl)ccc1CNC[C@@H]1CCC(=O)N1 [B-149]
